Assays:
[1] = system: tumor-infiltrating immune cells; experiment: Mechanistic study in a MC38 model, FACS analysis of tumor tissue; type: in vivo, C57BL/6 mice; conditions: 6 days after drug treatment
Method: Methods: C57BL/6 inbred female mice, aged at 6-8 week, were purchased from Shanghai Lingchang Biotechnology Co., Ltd. On the day of inoculation (Day 0), MC38 cells were harvested, washed and counted. Cells were re-suspended as single cell solution in PBS at a concentration of 1×10^6 cells/mL at the final step. Immediately, […] (1×10^5) of MC38 cells suspended in 0.1 mL PBS were injected in the right flank of C57BL/6 mice subcutaneously using 27G needles. When palpable, tumors were measured by a caliper and tumor volume (mm^3) were calculated by length×width×height×0.5236. Mice with the tumor size approximately to 80-100 mm^3 were randomly assigned into one of four groups (n=8). Each group received vehicle (BID), A2B antagonist Compound 1 at 3 mg/kg (BID), mouse anti-PD-1 (RMP1-14) at 10 mg/kg (Q3D), or Compound 1 (3 mg/kg)+RMP1-14 (10 mg/kg) intraperitoneally. Tumor tissues were collected 6 days after drug treatment and made single cell suspension for FACS analysis to detect tumor-infiltrating immune cells.

[2] = system: B16F10 tumor; experiment: Combination with anti-PD-1 in a B16F10 model; type: in vivo, C57BL/6 mice; conditions: intraperitoneally for 7 days
Method: Methods: C57BL/6 inbred female mice, aged at 8-9 week, were purchased from Charles River. On the day of inoculation (Day 0), B16F10 cells were harvested, washed and counted. Cells were re-suspended as single cell solution in PBS at a concentration of 5×10^6 cells/mL at the final step. Immediately, five hundred thousand (5×10^5) of B16F10 cells suspended in 0.1 mL PBS were injected in the right flank of C57BL/6 mice subcutaneously using 27G needles. When palpable, tumors were measured by a caliper and tumor volumes (mm^3) were calculated by length×width×height×0.5236. Mice with the tumor size approximate to 100 mm^3 were randomly assigned into one of four groups (n=10). Each group received vehicle (BID), A2B antagonist Compound 1 at 1 mg/kg (BID), mouse anti-PD-1 (RMP1-14) at 10 mg/kg (Q3D), or Compound 1 (1 mg/kg)+RMP1-14 (10 mg/kg) intraperitoneally for 7 days. Tumor size and body weight were determined every 2-3 days.

[3] = system: MC38 tumor model; experiment: Fibrosis in a MC38 tumor model; type: in vivo
[4] = system: CT26 tumor; experiment: Combination with anti-PD-1 in a CT26 model; type: in vivo, Balb/C mice; conditions: intraperitoneally for 16 days
Method: Methods: Balb/C inbred female mice, aged at 8-9 week, were purchased from Charles River. On the day of inoculation (Day 0), CT26 cells were harvested, washed and counted. Cells were re-suspended as single cell solution in PBS at a concentration of 5×10^6 cells/mL at the final step. Immediately, five hundred thousand (5×10^5) of CT26 cells suspended in 0.1 mL PBS were injected in the right flank of Balb/C mice subcutaneously using 27G needles. When palpable, tumors were measured by a caliper and tumor volume (mm^3) were calculated by length×width×height×0.5236. Mice with the tumor size approximate to 100 mm^3 were randomly assigned into one of four groups (n=10). Each group received vehicle (BID), A2B antagonist Compound 1 at 3 mg/kg (BID), mouse anti-PD-1 (RMP1-14) at 5 mg/kg (Q2D), or Compound 1 (3 mg/kg)+RMP1-14 (5 mg/kg) intraperitoneally for 16 days. Tumor size and body weight were determined every 2-3 days.

## CCCn1c(=O)c2[nH]c(-c3cnn(Cc4cccc(C(F)(F)F)c4)c3)nc2n(CC)c1=O [Compound 1, 8-(1-(3-(Trifluoromethyl)benzyl)-1H-pyrazol-4-yl)-3-ethyl-1-propyl-1H-purine-2,6(3H,7H)-dione]
[1]; Compound 1 3 mg/kg BID i.p.
  increase of the amount of dendritic cells (DCs): 34%
  reduction of the amount of myeloid-derived suppressor cells (MDSCs): 41%
  reduction of the amount of regulatory T cells (Tregs): 28%
[1]; Compound 1 3 mg/kg BID, RMP1-14 10 mg/kg Q3D, alone or combined, i.p.
  increase of the amount of CD8+ T cells: 58%
[1]; Compound 1 3 mg/kg BID, RMP1-14 10 mg/kg Q3D, i.p.
  increase of the amount of CD4+ T cells: 84%
[2]; B16F10 model
  effect on mouse body weight: no effect
[2]; Compound 1 1 mg/kg BID, RMP1-14 10 mg/kg Q3D, alone or combined
  maximal B16F10 tumor growth inhibition (TGI): 48.7%
[3]
  fibrosis: reduces fibrosis
[4]; CT26 model
  effect on mouse body weight: no significant effect
[4]; Compound 1 3 mg/kg BID, RMP1-14 5 mg/kg Q2D, alone or combined
  maximal CT26 tumor growth inhibition (TGI): 47.5%

From patent US20240041889A1, “COMBINATION THERAPY WITH ADENOSINE RECEPTOR ANTAGONISTS” (Teon Therapeutics, Inc., priority 2020, published 2024)
